From PubChem BioAssay AID180 (DTP/NCI, 2004)
Values joined by “and” are separate entries in the source; they are usually repeats but may differ in a detail not shown here. Equal values may be shown once.

Test system: BDF1 mice, Adenocarcinoma 755 s.c., tumor weight T/C
Assay: NCI In Vivo Anticancer Drug Screen. Data for tumor model Adenocarcinoma 755 (subcutaneous) in B6D2F1 (BDF1) mice
Conditions: endpoint: mean tumor weight, schedule: Q01DX011 (ip), higher = larger tumour
How it was run: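 Values express treated (T) relative to vehicle-dosed control (C) animals, based on survival or tumour size measured after compound treatment of mice bearing a transplanted tumour.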

[1] = dose: 6.25 mg/kg/injection, vehicle: methylcellulose (MC)
[2] = dose: 12.5 mg/kg/injection, vehicle: methylcellulose (MC)
[3] = dose: 500.0 mg/kg/injection, vehicle: carboxymethylcellulose (CMC)
[4] = dose: 3.1 mg/kg/injection, vehicle: methylcellulose (MC)
[5] = dose: 125.0 mg/kg/injection, vehicle: carboxymethylcellulose (CMC)
[6] = dose: 250.0 mg/kg/injection, vehicle: carboxymethylcellulose (CMC)
[7] = dose: 150.0 mg/kg/injection, vehicle: methylcellulose (MC)
[8] = dose: 15.0 mg/kg/injection, vehicle: methylcellulose (MC)

With `O=S(=O)(F)c1ncnc2nc[nH]c12` the T/C (dose: 3.13 mg/kg/injection, vehicle: methylcellulose (MC)) was 75 % of control, the T/C [1] was 113 % of control and the T/C [2] was 72 % of control.
For `Cc1nc(N2CC2)nc(N2CC2)c1[N+](=O)[O-]`, the T/C (dose: 0.6 mg/kg/injection, vehicle: methylcellulose (MC)) was 47 % of control, the T/C (dose: 1.1 mg/kg/injection, vehicle: methylcellulose (MC)) was 59 % of control and the T/C (dose: 2.25 mg/kg/injection, vehicle: methylcellulose (MC)) was 12 % of control.
With `CCCCCCn1cnc2c(=S)nc[nH]c21` the T/C (dose: 63.0 mg/kg/injection, vehicle: carboxymethylcellulose (CMC)) was 50 % of control and the T/C [3] was 5 % of control and 13 % of control.
In the case of `O=CC1CO1` (centres undefined), the T/C (dose: 29.0 mg/kg/injection, vehicle: saline) is reported as 71 % of control, the T/C (dose: 44.0 mg/kg/injection, vehicle: saline) is reported as 41 % of control and the T/C (dose: 66.0 mg/kg/injection, vehicle: saline) is reported as 66 % of control.
`CCCn1cnc2c(SCc3ccccc3F)nc(N)nc21` was tested, and the T/C [4] was 22 % of control, the T/C [1] was 11 % of control and the T/C [2] was 1 % of control and 5 % of control.
`NNc1ncnc2nc[nH]c12` was tested, and the T/C (dose: 25.0 mg/kg/injection, vehicle: carboxymethylcellulose (CMC)) was 68 % of control and the T/C (dose: 37.5 mg/kg/injection, vehicle: carboxymethylcellulose (CMC)) was 57 % of control.
`Nc1nc(SCc2cccc(Br)c2)c2ncn(C3OC(CO)C(O)C3O)c2n1` (centres undefined) was tested, and the T/C (dose: 1.5 mg/kg/injection, vehicle: methylcellulose (MC)) was 84 % of control, the T/C [4] was 62 % of control and the T/C (dose: 6.2 mg/kg/injection, vehicle: methylcellulose (MC)) was 12 % of control and 24 % of control. The T/C [2] was 1 % of control and the T/C (dose: 25.0 mg/kg/injection, vehicle: methylcellulose (MC)) was 2 % of control.
With `CCCCN(C)N=Nc1ccc(C(=O)OCC)cc1` the T/C (dose: 125.0 mg/kg/injection, vehicle: other) was 37 % of control and the T/C (dose: 200.0 mg/kg/injection, vehicle: other) was 31 % of control.
`CN1C=NNc2ncnc(Cl)c21` was tested, and the T/C [5] was 166 % of control and the T/C [6] was 161 % of control.
With `CCCSc1nc(N)nc2c1ncn2C1OC(CO)C(O)C1O` (centres undefined) the T/C [4] was 33 % of control, the T/C [1] was 4 % of control and the T/C [2] was 2 % of control.
In the case of `CC(C)Cn1cnc2c(SCc3ccccc3[N+](=O)[O-])nc(N)nc21`, the T/C (dose: 37.5 mg/kg/injection, vehicle: methylcellulose (MC)) is reported as 42 % of control, the T/C (dose: 75.0 mg/kg/injection, vehicle: methylcellulose (MC)) is reported as 97 % of control and the T/C [7] is reported as 62 % of control. The T/C (dose: 300.0 mg/kg/injection, vehicle: methylcellulose (MC)) was 14 % of control.
For `CN(C)[C@@H]1C(=O)C(C(=O)NCN(CCCl)CCCl)=C(O)[C@@]2(O)C(=O)C3=C(O)c4c(O)cccc4[C@@](C)(O)[C@H]3C[C@@H]12`, the T/C (dose: 0.5 mg/kg/injection, vehicle: methylcellulose (MC)) was 111 % of control, the T/C (dose: 5.0 mg/kg/injection, vehicle: methylcellulose (MC)) was 98 % of control and the T/C (dose: 10.0 mg/kg/injection, vehicle: methylcellulose (MC)) was 44 % of control. The T/C (dose: 15.0 mg/kg/injection, vehicle: saline) was 37 % of control and 60 % of control, the T/C (dose: 20.0 mg/kg/injection, vehicle: methylcellulose (MC)) was 35 % of control and the T/C (dose: 60.0 mg/kg/injection, vehicle: saline) was 36 % of control.
`CS(=O)(=O)OCCC(=O)NCCCCCCNC(=O)CCOS(C)(=O)=O` was tested, and the T/C (dose: 57.0 mg/kg/injection, vehicle: methylcellulose (MC)) was 117 % of control, the T/C (dose: 113.0 mg/kg/injection, vehicle: methylcellulose (MC)) was 110 % of control and the T/C (dose: 225.0 mg/kg/injection, vehicle: methylcellulose (MC)) was 45 % of control.
`CC(=O)Nc1nc(SCc2ccccc2)c2[nH]cnc2n1` was tested, and the T/C [2] was 8 % of control.
In the case of `Nc1nsnc1C(=O)O`, the T/C (dose: 93.0 mg/kg/injection, vehicle: carboxymethylcellulose (CMC)) is reported as 80 % of control and the T/C (dose: 187.0 mg/kg/injection, vehicle: carboxymethylcellulose (CMC)) is reported as 98 % of control.
In the case of `CSc1ncc(C)c(Nc2ccc(Br)cc2)n1`, the T/C [8] is reported as 111 % of control and the T/C (dose: 31.0 mg/kg/injection, vehicle: methylcellulose (MC)) is reported as 109 % of control.
In the case of `O=C1NC(=O)C(c2ccc(Cl)cc2)(c2ccccc2Cl)N1` (centres undefined), the T/C (dose: 50.0 mg/kg/injection, vehicle: saline) is reported as 91 % of control, the T/C (dose: 100.0 mg/kg/injection, vehicle: saline) is reported as 82 % of control and the T/C [5] is reported as 81 % of control. For the same compound, the T/C (dose: 200.0 mg/kg/injection, vehicle: saline) was 58 % of control and 77 % of control, the T/C [6] was 28 % of control and the T/C (dose: 400.0 mg/kg/injection, vehicle: other) was 71 % of control. The T/C [3] was 81 % of control, the T/C (dose: 800.0 mg/kg/injection, vehicle: other) was 30 % of control and the T/C (dose: 800.0 mg/kg/injection, vehicle: saline) was 76 % of control. The T/C (dose: 1600.0 mg/kg/injection, vehicle: saline) was 107 % of control.
`O=C(Nc1ccc(C2=NCCN2)cc1)c1cccc(C(=O)Nc2ccc(C3=NCCN3)cc2)c1` was tested, and the T/C (dose: 9.0 mg/kg/injection, vehicle: water) was 110 % of control, the T/C (dose: 9.4 mg/kg/injection, vehicle: carboxymethylcellulose (CMC)) was 76 % of control and the T/C (dose: 12.0 mg/kg/injection, vehicle: water) was 165 % of control. The T/C [8] was 86 % of control, the T/C (dose: 18.0 mg/kg/injection, vehicle: water) was 108 % of control and the T/C (dose: 18.75 mg/kg/injection, vehicle: carboxymethylcellulose (CMC)) was 60 % of control. The T/C (dose: 25.0 mg/kg/injection, vehicle: water) was 60 % of control, the T/C (dose: 30.0 mg/kg/injection, vehicle: methylcellulose (MC)) was 64 % of control and the T/C (dose: 37.5 mg/kg/injection, vehicle: water) was 47 % of control. For the same compound, the T/C (dose: 50.0 mg/kg/injection, vehicle: water) was 59 % of control, the T/C (dose: 60.0 mg/kg/injection, vehicle: methylcellulose (MC)) was 67 % of control and the T/C (dose: 120.0 mg/kg/injection, vehicle: methylcellulose (MC)) was 37 % of control.
`CCC(C)Sc1nc(N)nc2c1ncn2C1OC(CO)C(O)C1O` (centres undefined) was tested, and the T/C (dose: 200.0 mg/kg/injection, vehicle: carboxymethylcellulose (CMC)) was 2 % of control and the T/C (dose: 300.0 mg/kg/injection, vehicle: carboxymethylcellulose (CMC)) was 2 % of control.
With `CN(C)CCCN1c2ccccc2Sc2ccc(Cl)cc21` the T/C (dose: 11.25 mg/kg/injection, vehicle: methylcellulose (MC)) was 44 % of control, the T/C (dose: 11.25 mg/kg/injection, vehicle: saline) was 59 % of control and the T/C (dose: 22.5 mg/kg/injection, vehicle: methylcellulose (MC)) was 28 % of control. For the same compound, the T/C (dose: 22.5 mg/kg/injection, vehicle: saline) was 47 % of control, the T/C (dose: 45.0 mg/kg/injection, vehicle: methylcellulose (MC)) was 33 % of control and the T/C (dose: 45.0 mg/kg/injection, vehicle: saline) was 38 % of control. The T/C (dose: 90.0 mg/kg/injection, vehicle: methylcellulose (MC)) was 25 % of control.
`CC(C)Cn1cnc2c(SCc3ccc(Br)cc3)nc(N)nc21` was tested, and the T/C (dose: 50.0 mg/kg/injection, vehicle: methylcellulose (MC)) was 40 % of control, the T/C [7] was 4 % of control and the T/C (dose: 200.0 mg/kg/injection, vehicle: methylcellulose (MC)) was 1 % of control. For the same compound, the T/C (dose: 400.0 mg/kg/injection, vehicle: methylcellulose (MC)) was 2 % of control.
In the case of `COC1CC(O)C(COS(C)(=O)=O)O1` (centres undefined), the T/C (dose: 25.0 mg/kg/injection, vehicle: saline) is reported as 100 % of control, the T/C (dose: 75.0 mg/kg/injection, vehicle: saline) is reported as 114 % of control and the T/C (dose: 225.0 mg/kg/injection, vehicle: saline) is reported as 113 % of control.
